15 compounds from US20250154169A1, “COMPOUNDS AND METHODS FOR MODULATING SPLICING” (REMIX THERAPEUTICS INC., priority 2021, published 2025) can be followed below.

Common to all, as to type: cell-based, human
In experiment [1] the test system is Target C mRNA. The experiment is described as follows: Splicing RT-qPCR gene panel, Target C canonical junction (CJ) mRNA. Conditions: Homo sapiens, Tables 4A/4B, read-out: Target C (IC50, decrease in CJ mRNA, gene panel). A digest of the protocol:
(§1)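 Read-out: RT-qPCR of the canonical exon-exon junction transcript, ΔCt vs housekeeping gene, normalized to DMSO, RQ = 2^(−ΔΔCt), converted to percentage response. Cells, A673 or K562, were dosed 24 h at 37 °C across 11 3-fold dilutions from 10 uM.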
(In qPCR the cycle at which signal appears reflects the starting amount.)

Experiment [2] concerns SMN2 mRNA. The experiment is described as follows: Splicing RT-qPCR gene panel, SMN2 canonical junction (CJ) mRNA. The conditions noted are these: Homo sapiens, Tables 4A/4B, read-out: SMN2 (IC50, decrease in CJ mRNA, gene panel). The procedure, abridged: as §1
In experiment [3] the test system is HTT mRNA. Nature of the experiment: Splicing RT-qPCR gene panel, HTT canonical junction (CJ) mRNA. Conditions: Homo sapiens, Tables 4A/4B, read-out: HTT (IC50, decrease in CJ mRNA, gene panel). A digest of the protocol: as §1
The test system of experiment [4] is MYB mRNA. The experiment is described as follows: Splicing RT-qPCR assay, MYB canonical (CJ) and alternative (AJ) junction mRNA. Conditions: Homo sapiens; for AC50: read-out: MYB AJ (AC50, increase in alternative junction mRNA). A digest of the protocol: (§2)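 A673 or K562 cells were treated 24 h at 37 °C with an 11-point 3-fold compound dilution series (top 10 uM, DMSO ≤0.25%). Lysates went to one-step RT-qPCR measuring canonical (CJ) and alternative-exon (AJ) junction transcripts, normalized to GAPDH, GUSB or PPIA.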

The test system of experiment [5] is HTT mRNA. The experiment is described as follows: Splicing RT-qPCR assay, HTT canonical (CJ) and alternative (AJ) junction mRNA. Conditions: Homo sapiens, A673 or K562 cells, 24 hours compound treatment; for IC50: 24 h, read-out: HTT CJ (IC50, decrease in canonical junction mRNA); for AC50: read-out: HTT AJ (AC50, increase in alternative junction mRNA). The procedure, abridged: as §2

[6] abbreviates: 24 h, A673 or K562 cells, 24 hours compound treatment, RT-qPCR.
The mark [7] stands for this setting: 24 h, A673 or K562 cells, 24 hours compound treatment, RT-qPCR, read-out: MYB CJ (IC50, decrease in canonical junction mRNA).
The mark [8] stands for this setting: Tables 4A/4B, canonical junction qPCR panel, read-out: MYB (IC50, decrease in CJ mRNA, gene panel).

Structures can show the parent of a compound that is named as a salt. Where two headings read alike, the source gives them in different places. Where only a bound is given, the exact number is not on record here.

On to `Cc1cc(NC(=O)c2ccc(N3CCNCC3)c3cn(C)nc23)cc2c1nc(C)n2C` [Compound 321, 2-methyl-4-(piperazin-1-yl)-N-(2,3,7-trimethyl-1,3-benzodiazol-5-yl) indazole-7-carboxamide trifluoroacetate], for which the 50% inhibitory concentration (IC50) in experiment [1], in experiment [2], in experiment [3], in experiment [4] (setting [7]), in experiment [4] (setting [8]) and in experiment [5] was greater than 10 µM in each case. Also, the AC50 in experiment [4] (setting [6]) and in experiment [5] was greater than 10 µM in each case.

In the case of `Cc1cn2nc(NC(=O)c3ccc(N4CCNCC4)c4cn(C)nc34)cc(C)c2n1` [Compound 322, N-{2,8-dimethylimidazo[1,2-b]pyridazin-6-yl}-2-methyl-4-(piperazin-1-yl) indazole-7-carboxamide hydrochloride], the IC50 in experiment [1] is greater than 10 µM; in experiment [2], 1 to 10 µM; in experiment [3], greater than 10 µM; in experiment [4] (setting [7]) it was 1 to 10 µM; in experiment [4] (setting [8]), 1 to 10 µM; in experiment [5], greater than 10 µM. For the same compound, the AC50 in experiment [4] (setting [6]) and in experiment [5] was greater than 10 µM throughout.

As to `COc1nc(NC(=O)c2ccc(N3CCNCC3)c3cn(C)nc23)cn2cc(C)nc12` [Compound 323], the IC50 in experiment [1] was 1 to 10 µM; in experiment [2] it was less than 0.1 µM; in experiment [3], less than 0.1 µM; in experiment [4] (setting [7]), less than 0.1 µM; in experiment [4] (setting [8]) it was less than 0.1 µM; in experiment [5] it was less than 0.1 µM. Further, the AC50 was less than 0.1 µM in experiment [4] (setting [6]) and 0.1 to 1 µM in experiment [5].

Regarding `Cn1cc2cc(NC(=O)c3ccc(N4CCNCC4)c4cn(C)nc34)ccc2n1` [Compound 324, 2-methyl-N-(2-methylindazol-5-yl)-4-(piperazin-1-yl) indazole-7-carboxamide hydrochloride], the IC50 in experiment [1] is greater than 10 µM; in experiment [2] it was less than 0.1 µM; in experiment [3] it was greater than 10 µM; in experiment [4] (setting [7]), 0.1 to 1 µM; in experiment [4] (setting [8]), 0.1 to 1 µM; in experiment [5], greater than 10 µM. For the same compound, the AC50 in experiment [4] (setting [6]) was in the range of 0.1 to 1 µM; in experiment [5], 1 to 10 µM.

In the case of `Cc1c(O)c(NC(=O)c2ccc(N3CCNCC3)c3cn(C)nc23)cc2cn(C)nc12` [Compound 325, N-(6-hydroxy-2,7-dimethylindazol-5-yl)-2-methyl-4-(piperazin-1-yl) indazole-7-carboxamide hydrochloride], the IC50 in experiment [1] was greater than 10 µM; in experiment [2], less than 0.1 µM; in experiment [3], greater than 10 µM; in experiment [4] (setting [7]) it was 1 to 10 µM; in experiment [4] (setting [8]), 1 to 10 µM; in experiment [5] it was greater than 10 µM. The AC50 is 1 to 10 µM in experiment [4] (setting [6]) and greater than 10 µM in experiment [5].

With `Cc1cn2cc(NC(=O)c3ccc(N4C[C@@H](C)N[C@@H](C)C4)c4cn(C)nc34)cc(F)c2n1` [Compound 326, 4-[(3R,5S)-3,5-dimethylpiperazin-1-yl]-N-{8-fluoro-2-methylimidazo[1,2-a]pyridin-6-yl}-2-methylindazole-7-carboxamide], the IC50 was 1 to 10 µM in experiment [1]; less than 0.1 µM in experiment [2]; 0.1 to 1 µM in experiment [3]; less than 0.1 µM in experiment [4] (setting [7]); less than 0.1 µM in experiment [4] (setting [8]); 0.1 to 1 µM in experiment [5]. Also, the concentration at half-maximal activity (AC50) is less than 0.1 µM in experiment [4] (setting [6]) and 0.1 to 1 µM in experiment [5].

For `Cc1cn2cc(NC(=O)c3ccc(N4CCC(CN)C4)c4cn(C)nc34)cc(F)c2n1` (stereo not drawn) [Compound 327, 4-[3-(aminomethyl)pyrrolidin-1-yl]-N-{8-fluoro-2-methylimidazo[1,2-a]pyridin-6-yl}-2-methylindazole-7-carboxamide], the IC50 in experiment [1] is greater than 10 µM; in experiment [2], 0.1 to 1 µM; in experiment [3], greater than 10 µM; in experiment [4] (setting [7]), 0.1 to 1 µM; in experiment [4] (setting [8]) it was 0.1 to 1 µM; in experiment [5], greater than 10 µM. The concentration at half-maximal activity (AC50) in experiment [4] (setting [6]) was 0.1 to 1 µM; in experiment [5] it was greater than 10 µM.

For the compound `CC(=O)NC1CCN(c2ccc(C(=O)Nc3cc(F)c4nc(C)cn4c3)c3nn(C)cc23)CC1` [Compound 328, 4-(4-acetamidopiperidin-1-yl)-N-{8-fluoro-2-methylimidazo[1,2-a]pyridin-6-yl}-2-methylindazole-7-carboxamide], the concentration for half-maximal inhibition (IC50) in experiment [1] was greater than 10 µM; in experiment [2], 0.1 to 1 µM; in experiment [3], greater than 10 µM; in experiment [4] (setting [7]), 1 to 10 µM; in experiment [4] (setting [8]), 1 to 10 µM; in experiment [5], greater than 10 µM. In addition, the AC50 in experiment [4] (setting [6]) and in experiment [5] was greater than 10 µM in each case.

`Cc1cn2cc(NC(=O)c3ccc(N4CCNCC4)c4cn(CC(O)CO)nc34)cc(F)c2n1` (stereo not drawn) [Compound 329, 2-(2,3-dihydroxypropyl)-N-{8-fluoro-2-methylimidazo[1,2-a]pyridin-6-yl}-4-(piperazin-1-yl)indazole-7-carboxamide]: the half-maximal inhibitory concentration (IC50) in experiment [1] is greater than 10 µM; in experiment [2] it was 1 to 10 µM; in experiment [3], greater than 10 µM; in experiment [4] (setting [7]) it was greater than 10 µM; in experiment [4] (setting [8]), greater than 10 µM; in experiment [5], greater than 10 µM. Besides, the AC50 in experiment [4] (setting [6]) and in experiment [5] was greater than 10 µM in each case.

For the compound `CCN(CC)C1CCN(c2ccc(C(=O)Nc3cc(F)c4nc(C)cn4c3)c3nn(CCOC)cc23)C1` (stereo not drawn) [Compound 330, 4-(3-(diethylamino)pyrrolidin-1-yl)-N-(8-fluoro-2-methylimidazo[1,2-a]pyridin-6-yl)-2-(2-methoxyethyl)-2H-indazole-7-carboxamide compound with 2,2,2-trifluoro-113-ethan-1-one], the IC50 in experiment [1] was greater than 10 µM; in experiment [2], less than 0.1 µM; in experiment [3] it was greater than 10 µM; in experiment [4] (setting [7]), 0.1 to 1 µM; in experiment [4] (setting [8]), 0.1 to 1 µM; in experiment [5] it was greater than 10 µM. Moreover, the results for the AC50 in experiment [4] (setting [6]) and in experiment [5] were 0.1 to 1 µM and greater than 10 µM, respectively.

For `Cc1nc2c(F)cc(NC(=O)c3ccc(N4CCNCC4)c4cn(C)nc34)cc2n1C` [Compound 332, N-(7-fluoro-2,3-dimethyl-1,3-benzodiazol-5-yl)-2-methyl-4-(piperazin-1-yl) indazole-7-carboxamide; trifluoroacetic acid], the IC50 in experiment [1], in experiment [2], in experiment [3], in experiment [4] (setting [7]), in experiment [4] (setting [8]) and in experiment [5] was greater than 10 µM in each case. Also, the AC50 in experiment [4] (setting [6]) and in experiment [5] was greater than 10 µM in each case.

For `Cc1cn2cc(NC(=O)c3ccc(N4CCNCC4)c4cn(C)nc34)c(F)cc2n1` [Compound 333, N-{7-fluoro-2-methylimidazo[1,2-a]pyridin-6-yl}-2-methyl-4-(piperazin-1-yl) indazole-7-carboxamide trifluoroacetate], the IC50 in experiment [1] was greater than 10 µM; in experiment [2], less than 0.1 µM; in experiment [3] it was 1 to 10 µM; in experiment [4] (setting [7]) it was 0.1 to 1 µM; in experiment [4] (setting [8]), 0.1 to 1 µM; in experiment [5], 1 to 10 µM. Moreover, the half-maximal activity concentration (AC50) in experiment [4] (setting [6]) is 0.1 to 1 µM; in experiment [5], 1 to 10 µM.

As to `Cc1cn2cc(NC(=O)c3ccc(N4C[C@@H](C)N[C@@H](C)C4)c4cn(C)nc34)nc(C)c2n1` [Compound 334, N-{2,8-dimethylimidazo[1,2-a]pyrazin-6-yl}-4-[(3R,5S)-3,5-dimethylpiperazin-1-yl]-2-methylindazole-7-carboxamide], the IC50 in experiment [1] was greater than 10 µM; in experiment [2], less than 0.1 µM; in experiment [3], greater than 10 µM; in experiment [4] (setting [7]), 0.1 to 1 µM; in experiment [4] (setting [8]), 0.1 to 1 µM; in experiment [5], greater than 10 µM. The AC50 in experiment [4] (setting [6]) is 0.1 to 1 µM; in experiment [5], greater than 10 µM.

For `Cc1cn2cc(NC(=O)c3ccc(N4CCC(CN)CC4)c4cn(C)nc34)cc(F)c2n1` [Compound 335, 4-[4-(aminomethyl)piperidin-1-yl]-N-{8-fluoro-2-methylimidazo[1,2-a]pyridin-6-yl}-2-methylindazole-7-carboxamide], the IC50 in experiment [1] is greater than 10 µM; in experiment [2], 0.1 to 1 µM; in experiment [3], greater than 10 µM; in experiment [4] (setting [7]) it was 1 to 10 µM; in experiment [4] (setting [8]) it was 1 to 10 µM; in experiment [5], greater than 10 µM. The results for the concentration at half-maximal activity (AC50) in experiment [4] (setting [6]) and in experiment [5] were 1 to 10 µM and greater than 10 µM, respectively.

`Cc1cn2cc(NC(=O)c3ccc(N4CCC(C)(N)CC4)c4cn(C)nc34)cc(F)c2n1` [Compound 336, 4-(4-amino-4-methylpiperidin-1-yl)-N-{8-fluoro-2-methylimidazo[1,2-a]pyridin-6-yl}-2-methylindazole-7-carboxamide]: the IC50 in experiment [1] is 0.1 to 1 µM; in experiment [2] it was less than 0.1 µM; in experiment [3] it was 0.1 to 1 µM; in experiment [4] (setting [7]) it was less than 0.1 µM; in experiment [4] (setting [8]), less than 0.1 µM; in experiment [5], 0.1 to 1 µM. Also, the AC50 in experiment [4] (setting [6]) was less than 0.1 µM; in experiment [5], 0.1 to 1 µM.

The IC50 is the midpoint of a concentration-inhibition curve. For orientation: AC50 means the midpoint of the concentration-response curve, whichever way the signal moves.
